# ChEMBL document CHEMBL4680279, “Opportunities for Tapping into Three-Dimensional Chemical Space through a Quaternary Carbon” (J Med Chem, 2020)
# Legend:
# [1] = target: Cholecystokinin(CCK) A/B (Homo sapiens) (UniProt P32239+P32238); test: Selectivity index, ratio of IC50 for human Cholecystokinin B receptor expressed in CHO-K1 cells to IC50 for human Cholecystokinin A receptor expressed in CHO-K1 cells; assay type: cell-based
# [2] = Displacement of N-[3H]ethyladenosin-5'-uronamide from adenosine receptor A2 in rat striatal membranes by liquid scintillation counting method; assay type: cell membranes, Striatum, Membrane
# [3] = target: Growth hormone secretagogue receptor type 1 (Rattus norvegicus, UniProt O08725); test: Agonist activity at GHSR in Wistar rat pituitary gland cells assessed as induction of GH release by RIA; assay type: tissue-based, Pituitary gland cell
# Candida albicans = test: Antifungal activity against Candida albicans 124 incubated for 48 hrs; assay type: functional
# Aspergillus fumigatus = test: Antifungal activity against Aspergillus fumigatus incubated for 72 hrs; assay type: functional
# [4] = Selectivity ratio of Ki for Displacement of N-[3H]ethyladenosin-5'-uronamide from adenosine receptor A2 in rat striatal membranes to Ki for Displacement of N6-[3H]cyclohexyladenosine from adenosine receptor A1 in guinea pig forebrain membranes; assay type: cell membranes
# Sequence of Cholecystokinin(CCK) A/B (Homo sapiens) (P32238 whole entry, looked up): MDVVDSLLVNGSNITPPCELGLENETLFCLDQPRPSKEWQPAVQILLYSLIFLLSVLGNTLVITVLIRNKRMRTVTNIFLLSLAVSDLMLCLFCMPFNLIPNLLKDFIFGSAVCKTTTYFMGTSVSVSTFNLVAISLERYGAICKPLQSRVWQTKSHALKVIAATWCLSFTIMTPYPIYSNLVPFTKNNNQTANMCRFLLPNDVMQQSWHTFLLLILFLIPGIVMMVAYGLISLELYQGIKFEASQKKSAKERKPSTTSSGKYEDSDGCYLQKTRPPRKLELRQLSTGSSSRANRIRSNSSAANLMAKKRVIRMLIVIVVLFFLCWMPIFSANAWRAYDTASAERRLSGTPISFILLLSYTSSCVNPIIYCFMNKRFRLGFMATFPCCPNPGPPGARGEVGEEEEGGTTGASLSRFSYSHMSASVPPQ
# Sequence of Cholecystokinin(CCK) A/B (Homo sapiens) (P32239 whole entry, looked up): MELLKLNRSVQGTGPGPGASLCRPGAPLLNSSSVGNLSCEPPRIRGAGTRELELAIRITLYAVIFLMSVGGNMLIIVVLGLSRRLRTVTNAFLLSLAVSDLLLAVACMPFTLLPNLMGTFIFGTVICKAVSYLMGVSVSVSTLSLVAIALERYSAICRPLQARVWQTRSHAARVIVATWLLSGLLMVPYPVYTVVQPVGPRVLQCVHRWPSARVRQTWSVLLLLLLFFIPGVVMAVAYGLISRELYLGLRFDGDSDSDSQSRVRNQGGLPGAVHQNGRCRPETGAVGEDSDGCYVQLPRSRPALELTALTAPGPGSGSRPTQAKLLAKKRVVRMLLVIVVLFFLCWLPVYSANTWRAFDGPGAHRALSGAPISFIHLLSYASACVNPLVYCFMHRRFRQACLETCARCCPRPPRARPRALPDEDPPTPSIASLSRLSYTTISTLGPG
# Sequence of Growth hormone secretagogue receptor type 1 (O08725 whole entry): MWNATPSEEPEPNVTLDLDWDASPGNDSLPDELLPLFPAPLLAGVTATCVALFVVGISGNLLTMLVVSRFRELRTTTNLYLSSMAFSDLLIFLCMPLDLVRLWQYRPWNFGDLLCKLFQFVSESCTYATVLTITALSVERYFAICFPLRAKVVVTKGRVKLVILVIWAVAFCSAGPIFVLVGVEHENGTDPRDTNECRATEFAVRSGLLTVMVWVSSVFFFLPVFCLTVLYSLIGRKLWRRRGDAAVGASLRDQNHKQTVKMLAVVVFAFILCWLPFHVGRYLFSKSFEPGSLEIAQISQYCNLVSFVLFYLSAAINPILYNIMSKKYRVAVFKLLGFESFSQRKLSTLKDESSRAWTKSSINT
SMILES,Ratio IC50 [1],MIC (Candida albicans) [µg/mL],MIC (Aspergillus fumigatus) [µg/mL],further results
CC(C)N(C(=O)CN1C(=O)C(C)(NC(=O)Nc2ccccc2)C(=O)N(c2ccccc2)c2ccccc21)c1ccccc1 (centres undefined),0.2,,,
"CCCn1c(=O)c2[nH]c(C3CCCC3)nc2n(CCC)c1=O [1,3-DIPROPYL-8-CYCLOPENTYLXANTHINE [DPCPX]]",,,,Ki [2]: 590 nM
O=C(NC(Cc1c[nH]c2ccccc12)C(=O)N1CCC2(CCc3ccccc32)CC1)NC1CN2CCC1CC2 (centres undefined) [SPIROPIPERIDINE],,,,EC50 [3]: 50 nM
CN(Cc1ccc(C(C)(C)c2ccccc2)cc1)Cc1cccc2ccccc12,,1.56,0.1,
CN(Cc1ccc(C2(c3ccccc3)CC2)cc1)Cc1cccc2ccccc12,,3.13,1.56,
CN1N=C2CCN(C(=O)[C@@H](COCc3ccccc3)NC(=O)C(C)(C)N)C[C@@]2(Cc2ccccc2)C1=O [CAPROMORELIN],,,,EC50 [3]: 3 nM
CN(Cc1ccc(Cc2ccccc2)cc1)Cc1cccc2ccccc12,,> 100,> 100,
CC(C)N(C(=O)CN1C(=O)C(CC(=O)Nc2ccccc2)C(=O)N(c2ccccc2)c2ccccc21)c1ccccc1 (centres undefined),5,,,
CC(C)N(C(=O)CN1C(=O)C(C)(CC(=O)Nc2ccccc2)C(=O)N(c2ccccc2)c2ccccc21)c1ccccc1 (centres undefined),110,,,
CCCn1c(=O)c2nc(C3C(C)(C)CCC3(C)C)[nH]c2n(CCC)c1=O,,,,Ratio Ki [4]: > 4500; Ki [2]: > 100000 nM
